# Experiments:
# [1] = tested on: cells expressing pluripotency markers derived from human embryonic stem cells; assay: MTS viability (toxicity) assay of cells expressing pluripotency markers; assay type: cell-based; parameters: Raw data (duplicate), first replicate / Average: unit not given here; conditions: for viability at 10 µM: Homo sapiens, Embryonic stem cell, viability of cells expressing pluripotency markers, relative to control; for Average of raw data (duplicate), optical density at 490 nm: MTS on day 4
# Procedure, shortened: (§1)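 A GSK-3B inhibitor library was screened for toxicity to pluripotency-marker-expressing cells. Compound was given in DMEM:F12 with 0.5% FCS and 100 ng/ml Activin A for two days, then replaced by medium with 2% FCS and Activin A. On day 4, MTS absorbance at 490 nm gave viability as percent of Activin A plus Wnt3a control wells.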
# [2] = as above; assay type: cell-based, human; parameters: Raw data (duplicate), first replicate / Average: unit not given here; conditions: human, MTS on day 4, relative to Activin A + Wnt3a positive control, read-out: % Control (percentage viability of control); for viability at 4 days, 2.5 μM: cmpd conc 2.5 μM; for viability at 4 days, 5 μM: cmpd conc 5 μM; for viability at 4 days, 10 μM: cmpd conc 10 μM
# Procedure, shortened: as §1
# [3] = tested on: human embryonic stem cells (H9 line); assay: High content screening assay: cell number (proliferative response); assay type: cell-based; conditions: for fold induction at 10 µM: Homo sapiens, Embryonic stem cell, 10 μM test compound with 100 ng/ml activin A on days 1-2, H9, total cell number by IN Cell Analyzer, strong and moderate hits, read-out: Proliferative Response, Fold over Wnt 3a/AA control
# Procedure, shortened: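 H9 hESCs on MATRIGEL treated days 1-2 with 10 μM compound in DMEM:F12, 0.5% FCS, 100 ng/ml activin A; days 3-4 with 2% FCS plus activin A without compound. Fixed cells immunostained for Sox17 or HNF-3beta with Draq5 nuclear counterstain. Cell number and staining intensity quantified by high-content imaging, 12 fields/well.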
# [4] = MTS viability assay raw reading, replicate 1
# [5] = MTS viability assay raw reading, replicate 2
# [6] = average of duplicate MTS raw readings
# [7] = cell number in the wells analysed for HNF-3b expression
# [8] = cell number in the wells analysed for SOX-17 expression
SMILES,viability at 10 µM [1] [%],"Raw data (duplicate), first replicate [1, 4]","Raw data (duplicate), second replicate [1, 5]","Average [1, 6]","Average of raw data (duplicate), optical density at 490 nm ([1]; cmpd conc 2.5 μM)","Average of raw data (duplicate), optical density at 490 nm ([1]; cmpd conc 5 μM)","Average of raw data (duplicate), optical density at 490 nm ([1]; cmpd conc 10 μM)","viability at 4 days, 2.5 μM [2] [%]","viability at 4 days, 5 μM [2] [%]","viability at 4 days, 10 μM [2] [%]","Proliferative Response Total cells [3, 7]","Proliferative Response Total cells [3, 8]",fold induction at 10 µM [3],"Average ([1]; MTS viability readout, average of duplicate raw data)","Raw data (duplicate), first replicate ([1]; MTS viability readout, raw value of replicate 1)","Raw data (duplicate), second replicate ([1]; MTS viability readout, raw value of replicate 2)"
"O=C1NC(=O)C(c2cn(CCOCCOCCO)c3ccccc23)=C1c1cn(CCO)c2ccccc12 [Compound 110, 3-[1-(2-Hydroxyethyl)-1H-indol-3-yl]-4-{1-[2-({2-[(2-hydroxyethyl)oxy]ethyl}oxy)ethyl]-1H-indol-3-yl}-1H-pyrrole-2,5-dione]",112,0.948,0.764,0.856,0.8272,0.7879,0.6747,104,98.5,81.6,–,–,–,–,–,–
"O=C1NC(=O)C(c2cn(CCOCCOCCNC3CCCc4ccccc43)c3ccccc23)=C1c1cn(CCNC2CCCc3ccccc32)c2ccccc12 (stereo not drawn) [Compound 144, 3-{1-[2-(1,2,3,4-Tetrahydronaphthalen-1-ylamino)ethyl]-1H-indol-3-yl}-4-(1-{2-[(2-{[2-(1,2,3,4-tetrahydronaphthalen-1-ylamino)ethyl]oxy}ethyl)oxy]ethyl}-1H-indol-3-yl)-1H-pyrrole-2,5-dione]",106,0.840,0.832,0.836,0.2898,0.1473,0.1464,23.9,2.5,2.4,6833,7990,–,–,–,–
"CN(C)c1cccc(-n2cc(C3=C(c4nn(CCO)c5ccccc45)C(=O)NC3=O)c3ccccc32)c1 [Compound 145, 3-{1-[3-(Dimethylamino)phenyl]-1H-indol-3-yl}-4-[1-(2-hydroxyethyl)-1H-indazol-3-yl]-1H-pyrrole-2,5-dione]",105,0.831,0.822,0.826,0.7608,0.5871,0.1277,94.5,68.4,–,2907,4914,–,–,–,–
"CN(C)c1ccc(-n2cc(C3=C(c4nn(CCO)c5ccccc45)C(=O)NC3=O)c3cc(Cl)ccc32)cn1 [Compound 148, 3-{5-Chloro-1-[6-(dimethylamino)pyridin-3-yl]-1H-indol-3-yl}-4-[1-(2-hydroxyethyl)-1H-indazol-3-yl]-1H-pyrrole-2,5-dione]",88.8,0.753,0.687,0.720,0.2669,0.1559,0.1537,20.4,3.8,3.5,6536,12243,0.799,–,–,–
"COC(=O)c1cncc(-n2cc(C3=C(c4nn(CCO)c5ccccc45)C(=O)NC3=O)c3cc(Cl)ccc32)c1 [Compound 150, Methyl 5-(5-chloro-3-{4-[1-(2-hydroxyethyl)-1H-indazol-3-yl]-2,5-dioxo-2,5-dihydro-1H-pyrrol-3-yl}-1H-indol-1-yl)pyridine-3-carboxylate]",81.7,–,–,–,0.7630,0.6972,0.2259,94.8,84.9,14.3,6992,7958,–,0.673,0.668,0.678
"OCCC#Cc1nc(-c2ccc(F)cc2)c(-c2ccncc2)n1CCCc1ccccc1 [Compound 158, 4-[4-(4-Fluorophenyl)-1-(3-phenylpropyl)-5-pyridin-4-yl-1H-imidazol-2-yl]but-3-yn-1-ol]",77.7,0.629,0.659,0.644,0.7971,0.8183,0.6052,93.2,96.2,66.5,6058,6376,–,–,–,–
"CN(CCO)CCCn1nc(C2=C(c3cn(-c4cccnc4)c4ccccc34)C(=O)NC2=O)c2ccccc21 [Compound 198, 3-(1-{3-[(2-Hydroxyethyl)(methyl)amino]propyl}-1H-indazol-3-yl)-4-(1-pyridin-3-yl-1H-indol-3-yl)-1H-pyrrole-2,5-dione]",112,0.856,0.905,0.881,0.7480,0.6893,0.4619,92.5,83.8,49.7,2594,2386,–,–,–,–
"O=C1NC(=O)C(c2cn(-c3cccnc3)c3ccccc23)=C1c1cn(CCO)c2ccccc12 [Compound 206, 3-[1-(2-Hydroxyethyl)-1H-indol-3-yl]-4-(1-pyridin-3-yl-1H-indol-3-yl)-1H-pyrrole-2,5-dione]",110,0.845,0.877,0.861,0.7517,0.7326,0.1793,93.1,90.2,7.3,10331,11886,1.42,–,–,–
"Cc1c[nH]c(-c2cnc(NCCNc3ccc(C#N)cn3)nc2-c2ccc(Cl)cc2Cl)n1 [Compound 221, 6-[(2-{[4-(2,4-Dichlorophenyl)-5-(4-methyl-1H-imidazol-2-yl)pyrimidin-2-yl]amino}ethyl)amino]pyridine-3-carbonitrile]",98.8,–,–,–,0.9324,0.7191,0.6128,112,82.3,67.5,21203,21070,1.38,–,–,–

# Source: patent US20130337564A1, “Treatment of Pluripotent Cells” (Janssen Biotech, Inc., priority 2012, published 2013)
